# Data as given in patent US11759455B2, “Substituted 1H-imidazo[4,5-b]pyridin-2(3H)-ones and their use as GLUN2B receptor modulators” (JANSSEN PHARMACEUTICA NV, priority 2016, dated 2023).
# Where two headings read alike, the source gives them in different places.
# Biological target: T1, human GluN1/GluN2B NMDA receptors (Homo sapiens, UniProt Q13224)
# T1 construct: expressed in transfected cells
# Experiment: Cell-based calcium flux (FLIPR) assay on cloned human NR1/NR2B ion channels expressed in mammalian cells (standard and HTS buffer variants);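 also: stable Tet-On inducible cell line, Ca2+ influx triggered by glutamate at about EC40 plus 10 µM glycine, fluorescent dye read-out over 5 min, normalized to control wells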
# [1] = standard assay buffer (0.5 mM MgCl2 in dye loading buffer; 137 mM NaCl, 4 mM KCl in assay buffer), human GluN1/GluN2B, read-out: NR2B IC50 (μM) standard assay
# [2] = standard assay buffer (0.5 mM MgCl2 dye loading; 137 mM NaCl, 4 mM KCl assay buffer), human GluN1/GluN2B cells, read-out: NR2B IC50 (μM) standard assay
# [3] = HTS assay buffer (1.5 mM MgCl2 in dye loading buffer; 150 mM NaCl, 3 mM KCl in assay buffer), human GluN1/GluN2B, read-out: NR2B IC50 (μM) HTS assay
# [4] = HTS assay buffer (1.5 mM MgCl2 dye loading; 150 mM NaCl, 3 mM KCl assay buffer), human GluN1/GluN2B cells, read-out: NR2B IC50 (μM) HTS assay
# T1 sequence (Q13224 27-1484, other chains not shown): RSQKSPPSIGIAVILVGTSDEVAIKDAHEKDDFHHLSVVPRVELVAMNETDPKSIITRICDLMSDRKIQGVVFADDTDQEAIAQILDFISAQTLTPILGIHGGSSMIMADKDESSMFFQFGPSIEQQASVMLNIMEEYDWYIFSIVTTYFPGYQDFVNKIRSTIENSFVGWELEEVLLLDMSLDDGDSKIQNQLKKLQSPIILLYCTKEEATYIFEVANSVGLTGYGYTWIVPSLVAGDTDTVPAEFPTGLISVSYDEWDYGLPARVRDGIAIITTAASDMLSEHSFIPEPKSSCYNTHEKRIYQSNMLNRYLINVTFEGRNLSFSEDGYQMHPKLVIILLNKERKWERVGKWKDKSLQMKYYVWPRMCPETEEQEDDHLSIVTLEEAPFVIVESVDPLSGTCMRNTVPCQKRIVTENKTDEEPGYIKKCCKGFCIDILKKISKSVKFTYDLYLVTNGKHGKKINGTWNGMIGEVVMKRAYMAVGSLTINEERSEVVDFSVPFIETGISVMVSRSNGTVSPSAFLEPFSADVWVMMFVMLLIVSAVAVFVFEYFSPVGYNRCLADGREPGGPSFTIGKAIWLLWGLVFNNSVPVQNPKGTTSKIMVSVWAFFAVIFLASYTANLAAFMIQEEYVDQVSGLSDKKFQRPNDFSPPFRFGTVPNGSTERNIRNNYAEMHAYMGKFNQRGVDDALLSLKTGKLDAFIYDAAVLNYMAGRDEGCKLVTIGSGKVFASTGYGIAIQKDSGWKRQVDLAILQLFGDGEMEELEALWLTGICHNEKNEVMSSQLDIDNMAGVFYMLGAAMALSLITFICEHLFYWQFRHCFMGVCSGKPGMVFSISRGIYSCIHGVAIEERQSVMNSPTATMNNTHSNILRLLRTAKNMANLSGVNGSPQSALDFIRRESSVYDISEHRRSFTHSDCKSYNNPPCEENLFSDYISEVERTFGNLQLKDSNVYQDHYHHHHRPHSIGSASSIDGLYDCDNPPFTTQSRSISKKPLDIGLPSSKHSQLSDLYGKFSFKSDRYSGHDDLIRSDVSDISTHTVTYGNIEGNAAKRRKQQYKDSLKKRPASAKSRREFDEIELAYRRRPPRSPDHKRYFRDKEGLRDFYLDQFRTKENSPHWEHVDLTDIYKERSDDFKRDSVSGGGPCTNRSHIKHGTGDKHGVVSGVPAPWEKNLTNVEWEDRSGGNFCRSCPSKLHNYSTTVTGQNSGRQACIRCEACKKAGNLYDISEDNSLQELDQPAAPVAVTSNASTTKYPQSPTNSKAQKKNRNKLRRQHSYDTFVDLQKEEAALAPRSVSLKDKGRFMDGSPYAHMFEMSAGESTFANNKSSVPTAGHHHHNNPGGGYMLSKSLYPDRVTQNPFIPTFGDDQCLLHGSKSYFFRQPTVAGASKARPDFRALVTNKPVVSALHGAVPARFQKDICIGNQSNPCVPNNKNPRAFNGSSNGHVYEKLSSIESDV
Compound,IC50 [2],other results
"Cc1nnc(Cn2c(=O)n(C)c3ncc(-c4ccc(C)s4)cc32)o1 [Example 554, 3-Methyl-1-[(5-methyl-1,3,4-oxadiazol-2-yl)methyl]-6-(5-methyl-2-thienyl)imidazo[4,5-b]pyridin-2-one]",–,IC50 [1]: 0.533 µM
"Cn1c(=O)n(CC(=O)N2CCC2)c2cc(-c3ccc(F)s3)cnc21 [Example 81, 1-[2-(Azetidin-1-yl)-2-oxo-ethyl]-6-(5-fluoro-2-thienyl)-3-methyl-imidazo[4,5-b]pyridin-2-one]",0.031 µM,–
"Cn1c(=O)n(Cc2cccnn2)c2cc(-c3ccc(F)s3)cnc21 [Example 85, 6-(5-Fluoro-2-thienyl)-3-methyl-1-(pyridazin-3-ylmethyl)imidazo[4,5-b]pyridin-2-one]",0.157 µM,–
"CN(C)c1cccc(-c2cnc3[nH]c(=O)n(CC4CC4)c3c2)c1 [Example 473, 1-(Cyclopropylmethyl)-6-[3-(dimethylamino)phenyl]-3H-imidazo[4,5-b]pyridin-2-one]",–,IC50 [3]: 15.7 µM
"Cn1c(=O)n(Cc2ccncc2)c2cc(-c3cccc(C(F)(F)F)c3)cnc21 [Example 250, 3-Methyl-1-(4-pyridylmethyl)-6-[3-(trifluoromethyl)phenyl]imidazo[4,5-b]pyridin-2-one]",2 µM,–
"O=C(Cn1c(=O)[nH]c2ncc(-c3cccc(C(F)(F)F)c3)cc21)N1CCCCC1 [Example 206, 1-[2-Oxo-2-(1-piperidyl)ethyl]-6-[3-(trifluoromethyl)phenyl]-3H-imidazo[4,5-b]pyridin-2-one]",0.163 µM,–
"CN(C)C(=O)Cn1c(=O)n(C)c2ncc(-c3ccc(F)s3)cc21 [Example 82, 2-[6-(5-Fluoro-2-thienyl)-3-methyl-2-oxo-imidazo[4,5-b]pyridin-1-yl]-N,N-dimethyl-acetamide]",0.154 µM,–
"O=c1[nH]c2ncc(-c3cccc(C(F)F)c3)cc2n1Cc1cncc(F)c1 [Example 302, 6-[3-(Difluoromethyl)phenyl]-1-[(5-fluoro-3-pyridyl)methyl]-3H-imidazo[4,5-b]pyridin-2-one]",0.022 µM,–
"CCOC(=O)Cn1c(=O)[nH]c2ncc(-c3cccc(C(F)(F)F)c3)cc21 [Example 134, Ethyl 2-[2-oxo-6-[3-(trifluoromethyl)phenyl]-3H-imidazo[4,5-b]pyridin-1-yl]acetate]",0.035 µM,–
"O=c1[nH]c2ncc(-c3cccc(C(F)(F)F)c3)cc2n1Cc1cnccc1C(F)(F)F [Example 260, 6-[3-(Trifluoromethyl)phenyl]-1-[[4-(trifluoromethyl)-3-pyridyl]methyl]-3H-imidazo[4,5-b]pyridin-2-one]",2.86 µM,–
"O=c1[nH]c2ncc(-c3cccc(C(F)(F)F)c3)cc2n1CC1(F)COC1 [Example 226, 1-[(3-Fluorooxetan-3-yl)methyl]-6-[3-(trifluoromethyl)phenyl]-3H-imidazo[4,5-b]pyridin-2-one]",0.8 µM,–
"Cc1cc(F)ccc1-c1cnc2[nH]c(=O)n(CC(=O)N(C)C3CC3)c2c1 [Example 40, N-Cyclopropyl-2-[6-(4-fluoro-2-methyl-phenyl)-2-oxo-3H-imidazo[4,5-b]pyridin-1-yl]-N-methyl-acetamide]",–,IC50 [4]: 1.82 µM
"O=c1[nH]c2ncc(-c3cccc(Cl)c3)cc2n1Cc1ccccn1 [Example 282, 6-(3-Chlorophenyl)-1-(2-pyridylmethyl)-3H-imidazo[4,5-b]pyridin-2-one]",2.61 µM,–
"Cc1noc(Cn2c(=O)[nH]c3ncc(-c4ccc(F)cc4)cc32)n1 [Example 140, 6-(4-Fluorophenyl)-1-[(3-methyl-1,2,4-oxadiazol-5-yl)methyl]-3H-imidazo[4,5-b]pyridin-2-one]",0.105 µM,–
"COc1ccc(-c2cnc3[nH]c(=O)n(Cc4ccc(C#N)cc4)c3c2)cc1 [Example 476, 4-[[6-(4-Methoxyphenyl)-2-oxo-3H-imidazo[4,5-b]pyridin-1-yl]methyl]benzonitrile]",–,IC50 [3]: 4.53 µM
"Cc1c(F)ccc(-c2cnc3c(c2)n(CC(=O)N2CCC2)c(=O)n3C)c1F [Example 409, 1-[2-(Azetidin-1-yl)-2-oxo-ethyl]-6-(2,4-difluoro-3-methyl-phenyl)-3-methyl-imidazo[4,5-b]pyridin-2-one]",–,IC50 [1]: 0.008 µM
"Cn1c(=O)n(CC(=O)N2CC(F)C2)c2cc(-c3ccc(F)c(F)c3)cnc21 [Example 403, 6-(3,4-Difluorophenyl)-1-[2-(3-fluoroazetidin-1-yl)-2-oxo-ethyl]-3-methyl-imidazo[4,5-b]pyridin-2-one]",–,IC50 [1]: 0.042 µM
"COc1ccc(-c2cnc3[nH]c(=O)n(CC4CC4)c3c2)cc1F [Example 469, 1-(Cyclopropylmethyl)-6-(3-fluoro-4-methoxy-phenyl)-3H-imidazo[4,5-b]pyridin-2-one]",–,IC50 [3]: 0.944 µM
"Cn1cc(Cn2c(=O)n(C)c3ncc(-c4ccc(C(F)F)s4)cc32)cn1 [Example 561, 6-[5-(Difluoromethyl)-2-thienyl]-3-methyl-1-[(1-methylpyrazol-4-yl)methyl]imidazo[4,5-b]pyridin-2-one]",–,IC50 [1]: 0.354 µM

Compound,IC50 [2],other results
"O=c1[nH]c2ncc(-c3cccc(C(F)(F)F)c3)cc2n1Cc1csnn1 [Example 243, 1-(Thiadiazol-4-ylmethyl)-6-[3-(trifluoromethyl)phenyl]-3H-imidazo[4,5-b]pyridin-2-one]",0.065 µM,–
"Cc1c(F)ccc(-c2cnc3c(c2)n(CC(=O)N(C)C)c(=O)n3C)c1F [Example 423, 2-[6-(2,4-Difluoro-3-methyl-phenyl)-3-methyl-2-oxo-imidazo[4,5-b]pyridin-1-yl]-N,N-dimethyl-acetamide]",–,IC50 [1]: 0.006 µM
"COc1cccc(F)c1-c1cnc2[nH]c(=O)n(CC(=O)NC3CC3)c2c1 [Example 455, N-Cyclopropyl-2-[6-(2-fluoro-6-methoxy-phenyl)-2-oxo-3H-imidazo[4,5-b]pyridin-1-yl]acetamide]",–,IC50 [1]: 0.416 µM
"Cc1c(F)ccc(-c2cnc3c(c2)n(Cc2ccncn2)c(=O)n3C)c1F [Example 72, 6-(2,4-Difluoro-3-methyl-phenyl)-3-methyl-1-(pyrimidin-4-ylmethyl)imidazo[4,5-b]pyridin-2-one]",0.482 µM,–
"COc1ccc(-c2cnc3[nH]c(=O)n(CC(=O)NC4CC4)c3c2)cc1 [Example 38, N-Cyclopropyl-2-[6-(4-methoxyphenyl)-2-oxo-3H-imidazo[4,5-b]pyridin-1-yl]acetamide]",–,IC50 [4]: 1.01 µM
"O=C(Cn1c(=O)[nH]c2ncc(-c3cccc(C(F)(F)F)c3)cc21)c1nccs1 [Example 215, 1-(2-Oxo-2-thiazol-2-yl-ethyl)-6-[3-(trifluoromethyl)phenyl]-3H-imidazo[4,5-b]pyridin-2-one]",0.365 µM,–
"Cn1c(=O)n(CC(=O)N2CCC2)c2cc(-c3ccc(F)c(OC(F)F)c3)cnc21 [Example 588, 1-[2-(Azetidin-1-yl)-2-oxo-ethyl]-6-[3-(difluoromethoxy)-4-fluoro-phenyl]-3-methyl-imidazo[4,5-b]pyridin-2-one]",–,IC50 [1]: 0.023 µM
"Cc1ncc(Cn2c(=O)[nH]c3ncc(-c4cccc(C(F)(F)F)c4)cc32)cn1 [Example 231, 1-[(2-Methylpyrimidin-5-yl)methyl]-6-[3-(trifluoromethyl)phenyl]-3H-imidazo[4,5-b]pyridin-2-one]",0.094 µM,–
"Cn1c(=O)n(CC(=O)N2CC(F)(F)C2)c2cc(-c3cccc(F)c3)cnc21 [Example 417, 1-[2-(3,3-Difluoroazetidin-1-yl)-2-oxo-ethyl]-6-(3-fluorophenyl)-3-methyl-imidazo[4,5-b]pyridin-2-one]",–,IC50 [1]: 0.031 µM
"O=C(Cn1c(=O)[nH]c2ncc(-c3ccc(C(F)(F)F)s3)cc21)N1CCC1 [Example 323, 1-[2-(azetidin-1-yl)-2-oxo-ethyl]-6-[5-(trifluoromethyl)-2-thienyl]-3H-imidazo[4,5-b]pyridin-2-one]",–,IC50 [1]: 0.041 µM
"Cn1c(=O)n(CC(=O)N2CC(F)(F)C2)c2cc(-c3cccc(C(F)(F)F)c3F)cnc21 [Example 415, 1-[2-(3,3-Difluoroazetidin-1-yl)-2-oxo-ethyl]-6-[2-fluoro-3-(trifluoromethyl)phenyl]-3-methyl-imidazo[4,5-b]pyridin-2-one]",–,IC50 [1]: 0.015 µM
"Cn1c(=O)n(Cc2cnccn2)c2cc(-c3ccc(F)c(F)c3)cnc21 [Example 63, 6-(3,4-Difluorophenyl)-3-methyl-1-(pyrazin-2-ylmethyl)imidazo[4,5-b]pyridin-2-one]",2.3 µM,–
"CCOc1ccc(F)cc1-c1cnc2[nH]c(=O)n(CC3CC3)c2c1 [Example 466, 1-(Cyclopropylmethyl)-6-(2-ethoxy-5-fluoro-phenyl)-3H-imidazo[4,5-b]pyridin-2-one]",–,IC50 [3]: 15.8 µM
"Cc1ccncc1Cn1c(=O)[nH]c2ncc(-c3ccc(F)c(C)c3F)cc21 [Example 278, 6-(2,4-Difluoro-3-methyl-phenyl)-1-[(4-methyl-3-pyridyl)methyl]-3H-imidazo[4,5-b]pyridin-2-one]",0.111 µM,–
"O=C(Cn1c(=O)[nH]c2ncc(-c3ccc(Cl)cc3)cc21)NC1CC1 [Example 453, 2-[6-(4-Chlorophenyl)-2-oxo-3H-imidazo[4,5-b]pyridin-1-yl]-N-cyclopropyl-acetamide]",–,IC50 [3]: 0.1 µM
"Cn1c(=O)n(CC(=O)N2CCC2)c2cc(-c3csc(C(F)(F)F)n3)cnc21 [Example 107, 1-[2-(Azetidin-1-yl)-2-oxo-ethyl]-3-methyl-6-[2-(trifluoromethyl)thiazol-4-yl]imidazo[4,5-b]pyridin-2-one]",0.087 µM,–
"Cc1c(F)ccc(-c2cnc3c(c2)n(Cc2cnn(C)c2)c(=O)n3C)c1F [Example 572, 6-(2,4-Difluoro-3-methyl-phenyl)-3-methyl-1-[(1-methylpyrazol-4-yl)methyl]imidazo[4,5-b]pyridin-2-one]",–,IC50 [1]: 0.15 µM
"O=C(Cn1c(=O)[nH]c2ncc(-c3cccc(C(F)(F)F)c3)cc21)c1cccs1 [Example 214, 1-[2-Oxo-2-(2-thienyl)ethyl]-6-[3-(trifluoromethyl)phenyl]-3H-imidazo[4,5-b]pyridin-2-one]",> 10 µM,–
